Assay results published in patent publication US8273900B2, “Organic compounds” (Novartis AG, priority 2008, dated 2012).
pIC50: −log10 of the molar value. Counter-ions that a name gives are not always drawn.

Molecular target: T1, human recombinant CRF-1 receptor (Homo sapiens, UniProt P34998)
T1 construct: expressed in transfected cells; host or cells: CHO cells (G418-selected)
T1 sequence (P34998 24-415): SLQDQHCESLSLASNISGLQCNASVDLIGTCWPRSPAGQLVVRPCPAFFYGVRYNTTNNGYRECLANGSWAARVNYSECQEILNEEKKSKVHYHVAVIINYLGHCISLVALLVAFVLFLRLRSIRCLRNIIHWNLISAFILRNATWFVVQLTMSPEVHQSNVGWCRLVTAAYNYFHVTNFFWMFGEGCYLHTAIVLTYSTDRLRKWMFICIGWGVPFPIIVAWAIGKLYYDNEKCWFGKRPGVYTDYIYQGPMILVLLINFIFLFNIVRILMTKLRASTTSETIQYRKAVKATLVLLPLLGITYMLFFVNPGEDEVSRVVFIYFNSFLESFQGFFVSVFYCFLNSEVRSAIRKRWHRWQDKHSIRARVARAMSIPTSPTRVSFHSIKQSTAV
Test: CRF-1 receptor antagonism, HTRF cAMP assay in CHO cells in the presence of 1 nM CRF
Type: cell-based
Conditions: CHO cells expressing human recombinant CRF-1; inhibition of the effect of 1 nM CRF on cAMP
Experimental: The CRF-1 or CRF-2α receptor antagonistic activity of the agents of the invention has been determined in vitro in the following assay:
Chinese hamster ovary (CHO) cells expressing either the human recombinant CRF-1 or CRF-2a receptors (Chen et al., Proc Natl Acad Sci USA 90, 8967-8971, 1993; Liaw et al., Endocrinology 137, 72-77, 1996) are propagated in Dulbecco's modified Eagle medium supplemented with 10% foetal calf serum, non-essential amino acids, 100 U/ml penicillin, 100 mg/l streptomycin and 1 g/l geneticin (G418). For cyclic AMP determinations the Homogeneous Time-Resolved Fluoresce (HTRF) cAMP dynamic 2 kit (Cisbio International, France) was used as per manufacturers' instructions. CHO cells, previously cryopreserved, were thawed, centrifuged for 7 mins at 1200 rpm and resuspended in serum free media, then pipetted out onto clear bottomed black tissue culture treated 384-well microtitre plates (Corning Inc, US) at 2,000 cells per well. Compounds of the invention, prepared in DMSO, and subsequently diluted 50 fold in assay buffer (1× Hanks balanced salt solution, 0.2% (w/v) bovine serum albumin, 1.7 mM isobutylmethylxanthine and 10 mM Hepes, pH 7.4) are then added onto the cell containing plate where a further 2 fold dilution is performed and incubated for 15 min. Following incubation, buffer containing a 5 times final concentration of agonist is added to the plate and incubated for 30 min. Finally, d2 dye labelled cAMP and cryptate labeled anti-cAMP antibody, both made in lysis buffer, are added to the plate followed by a settling period of 1 hour. During the settling period cAMP produced by the cells competes with the d2 labelled cAMP for the anti-cAMP cryptate. The plate is read on the Pherastar (BMG, Germany). Increasing levels of endogenous cAMP produced by cells can be followed by a decrease of fluorescent signal and vice versa. Values represented by a change in arbitrary fluorescence units are converted into cAMP concentrations by use of a standard curve the reagents for which are supplied with the kit. Antagonist dose response curves (1 nM-30 μM) are constructed in the presence of 1 nM CRF. IC50 values of antagonists are calculated by fitting the percent inhibition of the effect of CRF by increasing concentrations of the antagonists. The fit is performed using the nonlinear logistic function of the Activitybase software package v 5.4.5.27 (IDBS, UK).

Row | pIC50 | SMILES
1 | 7.27 | Cc1ccc2c(NC[C@H]3CC[C@H](NC(=O)c4cc(C(F)(F)F)ccc4Cl)CC3)n[nH]c2n1 [Example 19.74, Trans-2-chloro-N-(4-((6-methyl-1H-pyrazolo[3,4-b]pyridin-3-ylamino)methyl)cyclohexyl)-5-(trifluoromethyl) benzamide]
2 | 7.41 | Cc1cccc(NC[C@H]2CC[C@H](NC(=O)c3cc(C(F)(F)F)ccc3Cl)CC2)n1 [Example 2.9, Trans-2-Chloro-N-{4-[(6-methyl-pyridin-2-ylamino)-methyl]-cyclohexyl}-5-trifluoromethyl-benzamide]
3 | 6.82 | COc1ncc(Cl)cc1NC[C@H]1CC[C@H](NC(=O)c2cc(C(F)(F)F)ccc2Cl)CC1 [Example 19.113, Trans-2-Chloro-N-{4-[(5-chloro-2-methoxy-pyridin-3-ylamino)-methyl]-cyclohexyl}-5-trifluoromethyl-benzamide]
4 | 7.21 | Cc1cc(NC[C@H]2CC[C@H](NC(=O)c3cc(Cl)cnc3C)CC2)ncc1F [Example 19.54, Trans-5-chloro-N-(4-((5-fluoro-4-methylpyridin-2-ylamino)methyl)cyclohexyl)-2-methylnicotinamide]
5 | 7.10 | [2H]C([2H])([2H])c1ncc(NC[C@H]2CC[C@H](NC(=O)c3cc(C(F)(F)F)ccc3Cl)CC2)cc1Cl [Example 19.104, Trans-2-Chloro-N-{4-[(5-chloro-6-d3-methyl-pyridin-3-ylamino)-methyl]-cyclohexyl}-5-trifluoromethyl-benzamide]
6 | 7.05 | O=C(N[C@H]1CC[C@H](Cn2ccc(N3CCNC3=O)n2)CC1)c1cc(C(F)(F)F)ccc1Cl [Example 6, Trans-2-chloro-N-(4-((3-(2-oxoimidazolidin-1-yl)-1H-pyrazol-1-yl)methyl)cyclohexyl)-5-(trifluoromethyl)benzamide]
7 | 7.77 | O=C(N[C@H]1CC[C@H](CNc2n[nH]c3cccc(F)c23)CC1)c1cc(C(F)(F)F)ccc1Cl [Example 19.63, Trans-2-chloro-N-(4-((4-fluoro-1H-indazol-3-ylamino)methyl)cyclohexyl)-5-(trifluoromethyl) benzamide]
8 | 6.24 | Cc1ncc(Cl)cc1C(=O)N[C@H]1CC[C@H](Cn2nc(C)c(C)c2C)CC1 [Example 18, Trans-5-Chloro-2-methyl-N-[4-(3,4,5-trimethyl-pyrazol-1-ylmethyl)-cyclohexyl]-nicotinamide]
9 | 7.43 | Cc1c(NC[C@H]2CC[C@H](NC(=O)c3cc(C(F)(F)F)ccc3Cl)CC2)n[nH]c1-c1ccccc1 [Example 19.79, Trans-2-chloro-N-(4-((4-methyl-5-phenyl-1H-pyrazol-3-ylamino)methyl)cyclohexyl)-5-(trifluoromethyl) benzamide]
10 | 7.33 | O=C(N[C@H]1CC[C@H](CNc2cc(C3CC3)n[nH]2)CC1)c1cc(C(F)(F)F)ccc1Cl [Example 8, Trans-2-Chloro-N-{4-[(5-cyclopropyl-2H-pyrazol-3-ylamino)-methyl]-cyclohexyl}-5-trifluoromethyl-benzamide]
11 | 6.70 | C[C@@H]1C[C@@H](NC(=O)c2cc(C(F)(F)F)ccc2Cl)CC[C@@H]1CNc1cc(-c2ccc(F)cc2)[nH]n1 (racemic) [Example 1.35a, (+/−)-2-Chloro-N-((1S,3R,4S)-4-{[5-(4-fluoro-phenyl)-1H-pyrazol-3-ylamino]-methyl}-3-methyl-cyclohexyl)-5-trifluoromethyl-benzamide]

Further lines, the compound ahead of its results:

Row | SMILES | pIC50
12 | Cn1cc(-c2ccccc2)c(NC[C@H]2CC[C@H](NC(=O)c3cc(C(F)(F)F)ccc3Cl)CC2)n1 [Example 19.101, Trans-2-Chloro-N-{4-[(1-methyl-4-phenyl-1H-pyrazol-3-ylamino)-methyl]-cyclohexyl}-5-trifluoromethyl-benzamide] | 7.16
13 | O=C(N[C@H]1CC[C@H](CNc2cccnc2)CC1)c1cc(C(F)(F)F)ccc1Cl [Example 4.21, Trans-2-Chloro-N-[4-(pyridin-3-ylaminomethyl)-cyclohexyl]-5-trifluoromethyl-benzamide] | 7.12
14 | CN(C)Cc1ccc(NC[C@H]2CC[C@H](NC(=O)c3cc(C(F)(F)F)ccc3Cl)CC2)nc1 [Example 1.34, Trans-2-Chloro-N-{4-[(5-dimethylaminomethyl-pyridin-2-ylamino)-methyl]-cyclohexyl}-5-trifluoromethyl-benzamide hydrochloride] | 5.91
15 | O=C(N[C@H]1CC[C@H](CNc2ccccc2Cl)CC1)c1cc(C(F)(F)F)ccc1Cl [Example 2.26, Trans-2-Chloro-N-{4-[(2-chloro-phenylamino)-methyl]-cyclohexyl}-5-trifluoromethyl-benzamide] | 7.20
16 | Cc1n[nH]c(NC[C@H]2CC[C@H](NC(=O)c3cc(C(F)(F)F)ccc3Cl)CC2)c1Cl [Example 19.114, Trans-2-Chloro-N-{4-[(4-chloro-5-methyl-2H-pyrazol-3-ylamino)-methyl]-cyclohexyl}-5-trifluoromethyl-benzamide] | 7.47
17 | Cc1ncc(NC[C@H]2CC[C@H](NC(=O)c3cc(C(F)(F)F)ccc3Cl)CC2)cc1Cl [Example 19.75, Trans-2-chloro-N-(4-((5-chloro-6-methylpyridin-3-ylamino)methyl)cyclohexyl)-5-(trifluoromethyl) benzamide] | 7.27
18 | Cc1ncc(Cl)cc1C(=O)N[C@H]1CC[C@H](CNc2nc(C)c(C)s2)CC1 [Example 5.14, Trans-5-Chloro-N-{4-[(4,5-dimethyl-thiazol-2-ylamino)-methyl]-cyclohexyl}-2-methyl-nicotinamide] | 7.18
19 | Cc1cnc(NC[C@H]2CC[C@H](NC(=O)c3cc(C(F)(F)F)ccc3Cl)CC2)s1 [Example 2.5, Trans-2-Chloro-N-{4-[(5-methyl-thiazol-2-ylamino)-methyl]-cyclohexyl}-5-trifluoromethyl-benzamide] | 7.44
20 | O=C(N[C@H]1CC[C@H](CNc2n[nH]c3ccc(Cl)cc23)CC1)c1cc(C(F)(F)F)ccc1Cl [Example 19.66, Trans-2-chloro-N-(4-((5-chloro-1H-indazol-3-ylamino)methyl)cyclohexyl)-5-(trifluoromethyl) benzamide] | 7.21
21 | CC(C)c1cc(NC[C@H]2CC[C@H](NC(=O)c3cc(C(F)(F)F)ccc3Cl)CC2)n[nH]1 [Example 4.16, Trans-2-Chloro-N-{4-[(5-isopropyl-1H-pyrazol-3-ylamino)-methyl]-cyclohexyl}-5-trifluoromethyl-benzamide] | 7.20
22 | Cc1noc(NC[C@H]2CC[C@H](NC(=O)c3cc(C(F)(F)F)ccc3Cl)CC2)c1C [Example 19.102, Trans-2-Chloro-N-{4-[(3,4-dimethyl-isoxazol-5-ylamino)-methyl]-cyclohexyl}-5-trifluoromethyl-benzamide] | 7.12
23 | Cc1cccnc1NC[C@H]1CC[C@H](NC(=O)c2cc(C(F)(F)F)ccc2Cl)CC1 [Example 1, Trans-2-Chloro-N-{4-[(3-methyl-pyridin-2-ylamino)-methyl]-cyclohexyl}-5-trifluoromethyl-benzamide] | 7.42
24 | O=C(N[C@H]1CC[C@H](Cn2ccc(-c3ccccc3)n2)CC1)c1cc(C(F)(F)F)ccc1Cl [Example 22.3, 2-Chloro-N-[4-(3-phenyl-pyrazol-1-ylmethyl)-cyclohexyl]-5-trifluoromethyl-benzamide] | 6.63
